Paper PMC7956625, “Optimization and Anti-Cancer Properties of Fluoromethylketones as Covalent Inhibitors for Ubiquitin C-Terminal Hydrolase L1” (Molecules, 2021)
Substitutions are numbered along the chain they refer to.

Experiments:
[1] = molecular target: T1, UCHL1 C90A (Homo sapiens, UniProt P09936, C90A); test: Mass spectrometry analysis of 34 adducts on UCHL1; format: binding
T1 construct: His (N); made in house
T1 sequence (P09936 1-223 C90A): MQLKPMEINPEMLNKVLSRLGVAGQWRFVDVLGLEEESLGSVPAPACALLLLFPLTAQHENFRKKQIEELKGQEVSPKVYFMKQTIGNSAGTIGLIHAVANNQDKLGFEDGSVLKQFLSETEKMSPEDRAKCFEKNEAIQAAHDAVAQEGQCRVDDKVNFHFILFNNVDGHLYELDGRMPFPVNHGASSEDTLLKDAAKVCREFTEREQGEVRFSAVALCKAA
Experimental: (§1) A common shortcoming to covalent inhibitors is that the reactive electrophilic groups may partake in non-specific labeling of off-target cysteines. To investigate if alternative cysteines are affected on UCHL1 we used analog 34 to confirm that the fluoromethylketone derivatives only conjugate Cys90. […] Additionally, samples were analyzed by mass spectrometry to increase sensitivity for detection of any non-Cys90 adducts. […]
(§2) Solutions containing 10 µM recombinant UCHL1^WT or UCHL1^C90A (from pET15b) (49 µL) was incubated with either 10 µM or 20 µM inhibitor for 3 h at room temperature in PBS starting block buffer (Thermo Scientific # 37538). To quench reaction, chilled acetone was added to the sample to achieve an overall 80% acetone solution. After overnight storage at −20 °C, suspension was centrifuged at 14,000× g at 4 °C for 15 min. Supernatant was discarded, and pellet was dried by vacuum centrifugation for 1 h. Pellet was reconstituted in 50/50 water/acetonitrile with 0.1% formic acid. 25 pmol per sample was analyzed by LC/MS (Agilent 1260 Infinity II with a ZORBAX Rapid Resolution High Definition 300Å Stable Bond C3, 2.1 × 100 mm, 1.8 µm column) attached to an Agilent 6129 quadrupole mass spectrometer in positive ion mode.
(§3) The column was held at 45 °C. Mobile solution A was 0.1% formic acid in water, and mobile phase B was 0.1% formic acid in acetonitrile. The gradient used was hold at 5% B for 5 min, increase linearly to […] for 10, and then hold at 95% B for 5 min. The mass data were collected at a range of 500–1000 m/z.
(§4) Raw data were processed using MestReNova. For all samples, the deconvoluted mass was calculated with a charged state range from 27 to 36, m/z range of 670–900 Da, and deconvoluted mass range from 25,000–26,000 Da. […] For C90A mutant, this abundance threshold was lowered to 5% to detect the presence of any reacted protein. 34 adduct is expected to be +486.00 Da after displacement of fluorine.

[2] = molecular target: T2, WT-UCHL1 (Homo sapiens, UniProt P09936); test: Mass spectrometry analysis of 34 adducts on UCHL1; format: binding; conditions: WT-UCHL1 + 34 (1:1)
T2 construct: His (N); made in house
T2 sequence (P09936 1-223): T1 sequence (P09936 1-223 C90A) with A90C
Experimental: as §1, §2, §3, §4

C#Cc1ccc(COC(=O)N[C@H](C(=O)N[C@@H](C)C(=O)N[C@@H](CCC(=O)OC)C(=O)CF)C(C)C)cc1 [Cpd 34]
Adduct(s) Observed (Da) ([1]; UCHL1 C90A + 34 (1:1)): none | Adduct(s) Observed (Da) ([1]; UCHL1 C90A + 34 (1:2)): no adducts observed and none | Adduct(s) Observed (Da) [2]: +486.00 Da
